Test results: patent publication US20230375530A1, “HUMAN BLOOD-BRAIN BARRIER MODEL FOR IMMUNOLOGICAL STUDIES” (WISCONSIN ALUMNI RESEARCH FOUNDATION, priority 2020, published 2023)

Test system: hPSC-derived Passage 1 and Passage 3 ECs
Assay: Western blotting of DMSO- or CHIR-treated ECs
Assay type: cell-based, human
Protocol: For extended culture, ECs were selectively dissociated and replated as previously described (Nishihara et al., 2020). Cells were incubated with Accutase until endothelial cells appeared round, typically 2-3 min at 37° C. The plate was tapped to release the ECs while SMLCs remained attached, and the EC-enriched cell suspension transferred to 4× volume of DMEM/F-12 and centrifuged for 5 min, 200×g. Cells were resuspended in hECSR medium and seeded on a new collagen IV-coated plate at approximately 3×10^4 cells/cm^2. hECSR medium was replaced every other day until confluent (typically 6 days). The selective dissociation and seeding described above was repeated, and hECSR medium was again replaced every other day until confluent (typically 6 days). We denote this time point “Passage 3.” In one experiment, these steps were repeated for another two passages. Except where indicated, CHIR 99021 or vehicle (DMSO) was included in the hECSR medium for the entire duration of culture.
To enrich samples from Passage 1 cultures for ECs, the Accutase-based selective dissociation method described above was employed. Dissociated cells were centrifuged for 5 min, 200×g, and resulting cell pellets were lysed in RIPA buffer (Rockland Immunochemicals, Pottstown, PA) supplemented with 1× Halt Protease Inhibitor Cocktail (Thermo Scientific). Passage 3 cells were lysed with the above buffer directly on plates. Lysates were centrifuged at 4° C. for 5 min, 14,000×g, and protein concentration in supernatants quantified using the Pierce BCA Protein Assay Kit (Thermo Scientific). Equal amounts of protein were diluted to equal volume with water, mixed with sample buffer, and heated at 95° C. for 5 min, except lysates intended for GLUT-1 Western blotting, which were not heated. Samples were resolved on 4-12% Tris-Glycine gels and transferred to nitrocellulose membranes. Membranes were blocked for 1 h in tris-buffered saline plus 0.1% Tween-20 (TBST) supplemented with 5% non-fat dry milk. Primary antibodies (see Table 6 for antibody information) diluted in TBST plus 5% non-fat dry milk were added to membranes and incubated overnight at 4° C. on a rocking platform. Membranes were washed five times with TBST. Secondary antibodies (see Table 6 for antibody information) diluted in TBST were added to membranes and incubated for 1 h at room temperature on a rocking platform, protected from light. Membranes were washed five times with TBST and imaged using an Odyssey 9120 (LI-COR, Lincoln, NE). Band intensities were quantified using Image Studio software (LI-COR).

SMILES: Cc1c[nH]c(-c2cnc(NCCNc3ccc(C#N)cn3)nc2-c2ccc(Cl)cc2Cl)n1 [CHIR, CHIR 99021]
- PLVAP reduction in Western blots (Passage 1 ECs): not apparent
- GLUT-1 and claudin-5 in Western blots (Passage 1 and Passage 3): upregulation of GLUT-1 and claudin-5
- LSR expression (Passage 1 and Passage 3 ECs): strong increase in LSR expression
- PLVAP in Western blots (Passage 3 ECs, CHIR vs controls): robust downregulation of PLVAP
